# Reference: patent US7718700B2, “Growth factor-binding compounds and methods of use” (Yale University, priority 2004, dated 2010)
# Several values for one entry are separate records, joined by “and”; a condition that tells them apart may be missing. Equal values may be shown once. Entries after “also recorded” stand apart in the source; their conditions may differ.
# What was measured:
# [1] = tested on: PDGFR; assay: 125I-PDGF binding to its receptor on NIH 3T3 cells; parameters: species or system mouse; settings: 4° C., 0.5 hours, read-out: IC50 inhibition of [I-125]PDGF binding to its receptor
# Description: Flk-1/NIH 3T3, NIH 3T3 and EGFR/NIH 3T3 cells were incubated with ^125I-VEGF, ^125I-PDGF and ^125I-EGF (50,000 cpm/well) respectively, along with increasing concentrations of GFB204. Cells were incubated at 4° C. for 0.5 hours, then washed three times with PBS and three times with lysis buffer prior to determining ^125I counts as described under Materials and Methods. An excess of cold VEGF, PDGF, and EGF was used to obtain non-specific binding levels. FIGS. 2A-2C show specific binding (% control) for PDGFR, Flk-1, and EGFR, respectively.
# Binding of ^125I-growth factors to their receptors. The binding assay of ^125I-VEGF, ^125I-PDGF and ^125I-EGF to their respective receptors was carried out as described previously (Blaskovich, M. A. et al. Nat Biotechnol, 2000, 18:1065-70. Briefly, Flk-1/NIH 3T3 cells, NIH 3T3 cells and EGFR/NIH 3T3 cells were incubated with ^125I-VEGF, ^125I-PDGF and ^125I-EGF (50,000 cpm/well), respectively, and increasing concentrations of GFB204. Cells were incubated at 4° C. for 0.5 hours, then washed three times with PBS and three times with 25 mM Tris, pH 8.0, 1% Triton-X-100, 10% glycerol, and 1% SDS prior to determining ^125I counts on a gamma counter (Beckmann Inc.). An excess of cold growth factors were used to obtain nonspecific binding levels.
# [2] = tested on: PDGF-stimulated Erk1, Erk2, Akt and STAT3 phosphorylation; assay: PDGF-stimulated phosphorylation of Erk1/2, Akt and STAT3 in NIH 3T3 cells; format: cell-based, mouse; settings: GFB204 10 μM
# Description: (§1) FIGS. 3A and 3B show the effect of GFB204 on growth factor stimulated Erk1, Erk2, Akt, and STAT3 phosphorylation. GFB204 inhibits VEGF and PDGF stimulation of Flk-1 tyrosine phosphorylation and Erk1/Erk2 phosphorylation (FIG. 3A). NIH 3T3 cells or Flk-1/NIH 3T3 cells were treated with increasing concentrations of GFB204 for 5 minutes prior to stimulation with PDGFBB (10 ng/ml) or VEGF (50 ng/ml), respectively, for 10 minutes. The cells were then lysed and processed for SDS-PAGE Western blotting with an antibody specific for phosphotyrosine-Flk-1 or anti-phosphotyrosine for PDGFR tyrosine phosphorylation or phospho-Erk1/2. GFB204 effects on growth factor-stimulated Erk1, Erk2, Akt and STAT3 phosphorylation (FIG. 3B). NIH 3T3, Flk-1/NIH 3T3, IGF-1R/NIH 3T3 or EGFR/NIH 3T3 cells were treated with GFB204 (10 μM) prior to stimulation with PDGF (NIH 3T3) VEGF (Flk-1/NIH 3T3), EGF (EGFR/NIH 3T3), bFGF (NIH 3T3) or IGF-1 (IGF-1R/NIH 3T3). The cells were then harvested and processed for SDS-PAGE Western blotting with antibodies specific for phospho-Erk1/2, phospho-Akt and phospho-STAT3.
# (§2) Growth factor-mediated stimulation of phosphorylation of Erk1/2, Akt and STAT3. […]
# [3] = tested on: EGF-stimulated Erk1, Erk2, Akt and STAT3 phosphorylation; assay: EGF-stimulated phosphorylation of Erk1/2, Akt and STAT3 in EGFR/NIH 3T3 cells; format: cell-based, mouse; settings: GFB204 10 μM
# Description: as §1, §2
compound,measurement,setting,value
CCCCOc1c2cc(C(=O)Nc3cc(C(=O)O)cc(C(=O)OCc4ccccc4)c3)cc1Cc1cc(C(=O)Nc3cc(C(=O)O)cc(C(=O)OCc4ccccc4)c3)cc(c1OCCCC)Cc1cc(C(=O)Nc3cc(C(=O)O)cc(C(=O)OCc4ccccc4)c3)cc(c1OCCCC)Cc1cc(C(=O)Nc3cc(C(=O)O)cc(C(=O)OCc4ccccc4)c3)cc(c1OCCCC)C2 [GFB204],IC50,[1],154 nM and 200 to 500 nM
same,"PDGF-stimulation of the phosphorylation of Erk1, Erk2, Akt and STAT3",[2],blocked; also recorded: inhibited
same,"EGF-stimulation of the phosphorylation of Erk1, Erk2, Akt and STAT3",[3],had little effect and not
